In patent US20050277625A1, “Estriol and estetrol prodrugs” (priority 2004, published 2005):

Assays:
uterus weight = test: Estrogenic activity in ovariectomized rats, oral administration (uterus weight); assay type: in vivo, Wistar rats; conditions: for Uterus Weight UVD (Uterus Doubling Dose vs. OVX): treatment days 1-3, sacrifice day 4
Experimental: (§1) Table 1 illustrates the estrogenic activity in the case of oral administration and liver toxicity (hepatic effects) based on data of selected compounds in in-vivo tests with rats.
(§2) Adult Wistar rats are ovariectomized and are brought into the test after a 14-day waiting period. The animals are then treated for over three days (days 1-3) and then sacrificed (day 4). Then, the organ weights are determined and estrogen-modulated factors of hepatic secretion in serum are determined, which in the rat are the increase of angiotensinogen and the drop in total cholesterol and HDL cholesterol.

[1] = tested on: angiotensinogen, total cholesterol and HDL cholesterol in serum; test: Hepatic effects in ovariectomized rats (estrogen-modulated factors of hepatic secretion in serum); conditions: for Angiotensin 1 ED50 (dose which produces an increase by 50% vs. OVX control) / HDL Cholesterol ED50 (dose which produces a drop by 50% vs. OVX control) / Total Cholesterol ED50 (dose which produces a drop by 50% vs. OVX control): oral, days 1-3, serum
Experimental: as §1, §2

Human Carboanhydrase I = Human Carboanhydrase I (Homo sapiens, UniProt P00915); test: Inhibition of carboanhydrase I (CO2 hydration); assay type: biochemical; conditions: read-out: CAI IC50
Sequence of Human Carboanhydrase I (P00915 whole entry): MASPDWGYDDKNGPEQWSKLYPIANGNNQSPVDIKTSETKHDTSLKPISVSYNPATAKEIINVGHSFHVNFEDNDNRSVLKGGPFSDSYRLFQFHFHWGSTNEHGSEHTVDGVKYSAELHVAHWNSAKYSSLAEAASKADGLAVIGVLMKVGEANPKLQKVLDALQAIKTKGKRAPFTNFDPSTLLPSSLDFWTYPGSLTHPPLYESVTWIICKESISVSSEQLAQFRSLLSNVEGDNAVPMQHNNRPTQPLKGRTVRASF
Experimental: Carboanhydrases catalyze the CO2 hydration.
Test preparation: A constant CO2 stream is directed by a buffer that was mixed with carboanhydrase I. The time that is required to reduce the pH within defined limits is a measuring parameter. This parameter reflects the formation of H2CO3 in the medium. IC50 inhibiting values are determined by test substances being pipetted into the test preparation.

erythrocytes = test: Binding to erythrocytes: displacement of 14C-estradiol sulfamate; design: species or system Human; conditions: for RBA to Erythrocytes: human blood, relative to estradiol-3-sulfamate = 100; for bonds to erythrocytes (in words): m-substituted compounds
Experimental: The SO2—NH2 group of the substances according to the invention can result in a concentration in erythrocytes by binding to carboanhydrases. The displacement of estradiol-3-sulfamate from the erythrocyte bond by test substances is measured.
Test preparation: Human blood is mixed with a mixture that consists of ^14C-labeled and unlabeled estradiol sulfamate. The erythrocytes are saturated at the selected working point, and the distribution in plasma/erythrocytes is 40:60. A second blood sample is mixed with a mixture that consists of ^14C-labeled estradiol sulfamate and unlabeled test substance. The relative binding affinity is calculated from the proportion of ^14C-labeled estradiol sulfamate in plasma: higher proportion=strong displacement of ^14C-estradiol sulfamate from the erythrocytes by the test substance=high binding affinity.

uterus and vagina weight = test: Interaction of estrogens with progesterone in uterus and vagina of ovariectomized guinea pigs; assay type: in vivo; conditions: OVX guinea pigs, 7 days s.c., with 3.0 mg progesterone per animal per day
From the text: Adult guinea pigs were ovariectomized and treated for 2 weeks after this operation over 7 days with estradiol or estriol over a large dose range. […] The effects of this treatment on the genital organs was raised on the 8th test day.

[2] = female, Wistar, rat, in vivo, 3 days
[3] = rats, oral, compared with compound 10 or compound 1

rel. hep. Akt. (relative hepatic activity vs. uterotropic activity), HDL Cholesterol ([1]; OVX rats, HDL cholesterol ED50 relative to UVD)	rel. hep. Akt. (relative hepatic activity vs. uterotropic activity), Angiotensin 1 ([1]; OVX rats, angiotensin 1 ED50 relative to UVD)	rel. hep. Akt. (relative hepatic activity vs. uterotropic activity), Total Cholesterol ([1]; OVX rats, total cholesterol ED50 relative to UVD)	SMILES	Uterus Weight UVD (Uterus Doubling Dose vs. OVX) (uterus weight; OVX rats, oral)	Angiotensin 1 ED50 (dose which produces an increase by 50% vs. OVX control) ([1]; OVX rats)	HDL Cholesterol ED50 (dose which produces a drop by 50% vs. OVX control) ([1]; OVX rats)	Total Cholesterol ED50 (dose which produces a drop by 50% vs. OVX control) ([1]; OVX rats)	rel. hep. Akt. (relative hepatic activity vs. uterotropic activity), Angiotensin 1 [1, 2]	rel. hep. Akt. (relative hepatic activity vs. uterotropic activity), HDL Cholesterol [1, 2]	rel. hep. Akt. (relative hepatic activity vs. uterotropic activity), Total Cholesterol [1, 2]	IC50 (Human Carboanhydrase I)	RBA to Erythrocytes (erythrocytes)	bonds to erythrocytes (in words) (erythrocytes)	increase of the uterus weight (doubling) (uterus weight; OVX rats, estriol even at very high dosages)	uterotropic actions in combination with progesterone (uterus and vagina weight; uterus)	increase in weight of the vagina in combination with progesterone (uterus and vagina weight; vagina)	estrogenic activity in the case of oral administration (uterus weight; [3])	oral bioavailability (uterus weight; [3])
			C[C@]12CC[C@@H]3c4ccc(O)cc4CC[C@H]3[C@@H]1C[C@@H](O)[C@@H]2OC(=O)c1ccc(S(N)(=O)=O)cc1 [Compound 1, 3,16α-Dihydroxyestra-1,3,5(10)-trien-17β-yl 4′-sulfamoylbenzoate]	162.6 μg/T/T	17.4 μg/T/T	45.9 μg/T/T	39.9 μg/T/T	0.12	0.28	0.25	200 nM							
			C[C@]12CC[C@@H]3c4ccc(O)cc4CC[C@H]3[C@@H]1C[C@@H](OC(=O)c1cccc(S(N)(=O)=O)c1)[C@@H]2O [Compound 10, 3,17β-Dihydroxyestra-1,3,5(10)-trien-16α-yl 3′-sulfamoylbenzoate]	378.2 μg/T/T	5.7 μg/T/T	18.6 μg/T/T	10.7 μg/T/T	0.015	0.49	0.028	450 nM	0.4	only very weak bonds were detected					
			C[C@]12CC[C@@H]3c4ccc(O)cc4CC[C@H]3[C@@H]1C[C@@H](OC(=O)c1ccc(S(N)(=O)=O)cc1)[C@@H]2O [Compound 4, 3,17β-Dihydroxyestra-1,3,5(10)-trien-16α-yl 4′-sulfamoylbenzoate]									2.6						
			C[C@]12CC[C@@H]3c4ccc(OS(N)(=O)=O)cc4CC[C@H]3[C@@H]1CC[C@@H]2O [Estradiol-3-sulfamate, reference compound]								157 ± 10.6 nM	100						
<0.1	<0.008	<0.08	C[C@]12CC[C@@H]3c4ccc(O)cc4CC[C@H]3[C@@H]1C[C@@H](O)[C@@H]2O [Estriol]	>1000 μg/T/T	7.6 μg/T/T	110.7 μg/T/T	79 μg/T/T							did not bring about a doubling of the uterus weight	clearly enhanced	not enhanced or is not enhanced to the same extent		
			C[C@]12CC[C@@H]3c4ccc(O)cc4CC[C@H]3[C@@H]1C[C@@H](O)[C@@H]2OC(=O)c1cccc(S(N)(=O)=O)c1 [Compound 7, 3,16α-Dihydroxyestra-1,3,5(10)-trien-17β-yl 3′-sulfamoylbenzoate]	137.5 μg/T/T	8.9 μg/T/T	6.0 μg/T/T	4.8 μg/T/T	0.06	0.04	0.03	600 nM	0.5	only very weak bonds were detected				higher estrogenic activity	higher
